# Assay results taken from USRE47193E1, “Selectively substituted quinoline compounds” (EISAI R&D MANAGEMENT CO., LTD., priority 2013, dated 2019).
# How the values were obtained:
# Human TLR7/8 = experiment: Human PBMC cell-based assay, TLR7/8 stimulus (RNA-Ig), cytokine ELISA; settings: primary human PBMC assay, TLR7/8 potency; ligand not given; read-out: Human PBMCs IC50
# Procedure: Human PBMC Cell-Based Assay. Human peripheral blood mononuclear cells (PBMC) were isolated from freshly-drawn heparinized (10 USP units/ml, Hospira, Lakeforest, Ill.) healthy donor whole blood by density gradient (Histopaque® 1077, Sigma, Inc., St. Louis, Mo.). Briefly, 25 ml blood was diluted with 15 ml PBS (without Ca^2+, Mg^2+) in a 50 ml conical tube, and 12 ml Histopaque was underlaid using a spinal needle. Tubes were centrifuged for 45 minutes at 1200 rpm (350×g), and PBMC were collected from the buffy coat. Cells were then washed twice in PBS, and red blood cells were lysed by suspension in 5 ml ammonium chloride solution (1× Red Blood Cell Lysis Buffer, eBioscience) for 5 minutes at room temperature. After a final wash in PBS, PBMC were resuspended at a final concentration of 2×10^6/ml in RPMI-1640 media with L-glutamine (Invitrogen) and supplemented with 25 mM HEPES (Mediatech, Inc, Manassas Va.), 10% fetal bovine serum (HyClone, Logan, Utah), and Penicillin-Streptomycin-Glutamine (Mediatech) and plated at 100 ul/well (2×10^5 cells/well) in tissue culture treated 96-well plates (Falcon).
# Antagonist compounds solubilized and serial diluted in 100% DMSO were added in triplicate to cells to yield a final concentration of 0.1% DMSO (v/v). Hydroxychloroquine (Acros Organics) solubilized and serial diluted in PBS was added in triplicate to cells. PBMC were incubated with antagonist compounds or HCQ for 30 minutes at 37° C., 5% CO2 before adding various TLR agonist reagents in 100 ul complete media per well as follows (final concentrations indicated): R848 (Resiquimod; GLSynthesis, Worcester, Mass.) at 1 uM for TLR7 and TLR8, LPS (Sigma) at 10 ng/ml for TLR4, and CpG-2216 (InvivoGen) at 5 ug/ml for TLR9. To prepare a TLR7/8 agonist that mimics RNA-containing auto-antibody immune complexes in lupus patients, a 26-mer RNA with a sequence derived from human U1 snRNA stem loop IV [(sequence: […]-[…] (SEQ ID NO: 2) with phosphorothioate backbone] was synthesized (Dharmacon, Inc., Lafayette, Colo.), which has been shown previously to be a potent TLR7 and TLR8 agonist. This RNA molecule was diluted to 2.5 μM in serum-free RPMI, and mouse anti-human single stranded DNA monoclonal antibody (MAB3034, Millipore, Inc., Billerica, Mass.), which also cross-reacts with RNA, was added at a 1:25 dilution or at 1 ug/ml. The resulting “RNA-Ig” stimulus was incubated at room temperature for 15-30 minutes before adding to cells. PBMC were incubated with the various TLR agonists for 20 hours at 37° C., 5% CO2. Cell culture supernatants were collected, and levels of various human cytokines were assessed as indicated by standard ELISA procedure according to the manufacturer's recommended protocol (BD Biosciences, Inc., San Diego, Calif.). In a subsequent assay (Table 6) the ability of ER-899742 to block stimulation of normal PBMC by various TLR7/8 ligands, but not DNA-mediated activation of TLR9, was examined. In this assay cells were plated at 1×10^5 cells/well in 100 ul in 96-well plates.
# mouse TLR7 = biological target: T1, mouse TLR7 (Mus musculus, UniProt P58681); experiment: Short-term in vivo (STIV) assay: oral dosing, R848 s.c., plasma IL-6; design: female BALB/c mice (Jackson Labs, Bar Harbor, Me.) were dosed by oral gavage; tissue Jackson Labs; host or cells: living female BALB/c mice; plasma IL-6 after s.c. R848
# T1 sequence (P58681 27-1050): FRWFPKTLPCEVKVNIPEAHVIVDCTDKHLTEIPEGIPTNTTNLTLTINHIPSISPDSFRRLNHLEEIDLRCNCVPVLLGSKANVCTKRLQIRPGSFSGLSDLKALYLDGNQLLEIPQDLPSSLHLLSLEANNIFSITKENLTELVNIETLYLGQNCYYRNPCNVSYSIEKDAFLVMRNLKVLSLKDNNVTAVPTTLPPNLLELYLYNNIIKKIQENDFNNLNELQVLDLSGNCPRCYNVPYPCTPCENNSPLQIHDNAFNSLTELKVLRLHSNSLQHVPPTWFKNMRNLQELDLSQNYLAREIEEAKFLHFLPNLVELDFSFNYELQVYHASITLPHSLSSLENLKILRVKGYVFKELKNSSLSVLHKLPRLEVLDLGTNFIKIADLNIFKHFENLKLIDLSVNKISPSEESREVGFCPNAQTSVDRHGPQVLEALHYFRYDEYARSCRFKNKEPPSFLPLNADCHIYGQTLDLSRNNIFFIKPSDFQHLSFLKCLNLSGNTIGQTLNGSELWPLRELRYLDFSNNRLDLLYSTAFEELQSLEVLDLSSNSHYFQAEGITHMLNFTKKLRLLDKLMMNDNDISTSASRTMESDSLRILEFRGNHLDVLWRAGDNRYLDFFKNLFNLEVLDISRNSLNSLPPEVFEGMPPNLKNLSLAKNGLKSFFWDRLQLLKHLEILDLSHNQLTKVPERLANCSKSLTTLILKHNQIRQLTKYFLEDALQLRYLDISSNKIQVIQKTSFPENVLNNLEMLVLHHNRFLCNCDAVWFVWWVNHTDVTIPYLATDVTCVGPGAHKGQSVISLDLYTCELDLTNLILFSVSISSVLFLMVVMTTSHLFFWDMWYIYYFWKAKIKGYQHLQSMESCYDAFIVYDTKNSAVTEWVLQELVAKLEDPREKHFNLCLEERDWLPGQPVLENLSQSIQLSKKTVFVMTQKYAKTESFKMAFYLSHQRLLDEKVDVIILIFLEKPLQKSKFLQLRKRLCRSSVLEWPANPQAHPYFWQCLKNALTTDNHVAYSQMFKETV
# Procedure: Figure Legend: Female BALB/c mice were dosed by oral gavage with Vehicle alone (0.5% aqueous methyl-cellulose) or compound formulated in Vehicle at 33 mg/kg, 100 mg/kg or 300 mg/kg. […] (FIG. 1A).
# Short-term in vivo (STIV) assay: To assess compound potency in vivo against mouse TLR7, a short-term in vivo (STIV) assay was utilized. Briefly, mice were orally dosed with compounds and at various time points afterwards were injected subcutaneously with agonist R848 to stimulate TLR7. The plasma IL-6 level following R848 stimulation was then measured by ELISA to assess compound potency and duration-of-action.
# Short-term in vivo (STIV) assay. Six to eight week old female BALB/c mice (Jackson Labs, Bar Harbor, Me.) were dosed by oral gavage in 200 ul volume with antagonist compounds formulated in 0.5% aqueous methyl-cellulose (Sigma, St. Louis, Mo.). At various time points afterwards, mice were injected subcutaneously (s.c.) in 100 ul volume with 15 ug R848 (Resiquimod; GLSynthesis, Worcester, Mass.) to stimulate TLR7.
structure (smiles),measurement,setting,value
CC1CN(c2ccc(C#N)c3ncccc23)CC(CNc2ncccn2)O1 (stereo not drawn) [ER-886787],IC50,Human TLR7/8,76 nM
C[C@@H]1CN(c2ccc(C#N)c3ncccc23)C[C@H](CNc2ccccn2)O1 [ER-886788],% Suppression vs. Vehicle,"mouse TLR7; 3 h, 33 mg/kg",0%
same,% Suppression vs. Vehicle,"mouse TLR7; 3 h, 100 mg/kg",0%
same,% Suppression vs. Vehicle,"mouse TLR7; 3 h, 300 mg/kg",24%
same,% Suppression vs. Vehicle,"mouse TLR7; 6 h, 33 mg/kg",0%
same,% Suppression vs. Vehicle,"mouse TLR7; 6 h, 100 mg/kg",27%
same,% Suppression vs. Vehicle,"mouse TLR7; 6 h, 300 mg/kg",26%
same,% Suppression vs. Vehicle,"mouse TLR7; 19 h, 33 mg/kg",0%
same,% Suppression vs. Vehicle,"mouse TLR7; 19 h, 100 mg/kg",17%
same,% Suppression vs. Vehicle,"mouse TLR7; 19 h, 300 mg/kg",2%
Cc1ccnc(NCC2CN(c3ccc(C#N)c4ncccc34)CC(C)O2)c1 (stereo not drawn) [ER-886853],IC50,Human TLR7/8,4 nM
COc1ccc(NC[C@H]2CN(c3ccc(C#N)c4ncccc34)C[C@@H](C)O2)nc1 [ER-886855],IC50,Human TLR7/8,34 nM
CC1CN(c2ccc(C#N)c3ncccc23)CC(CN2CCCC2C)O1 (stereo not drawn) [ER-886856],IC50,Human TLR7/8,111 nM
COc1cccc(NC[C@H]2CN(c3ccc(C#N)c4ncccc34)C[C@@H](C)O2)n1 [ER-886859],IC50,Human TLR7/8,107 nM
C[C@@H]1CN(c2ccc(C#N)c3ncccc23)C[C@H](CNc2ccnn2-c2ccccc2)O1 [ER-886860],IC50,Human TLR7/8,240 nM
CC1CN(c2ccc(C#N)c3ncccc23)CC(CN2CCCC2CO)O1 (stereo not drawn) [ER-886866],IC50,Human TLR7/8,50 nM
C[C@@H]1CN(c2ccc(C#N)c3ncccc23)C[C@H](CN2CC[C@@H](O)C2)O1 [ER-886867],IC50,Human TLR7/8,34 nM
COc1cccnc1NC[C@H]1CN(c2ccc(C#N)c3ncccc23)C[C@@H](C)O1 [ER-886948],% Suppression vs. Vehicle,"mouse TLR7; 3 h, 33 mg/kg",46%
same,% Suppression vs. Vehicle,"mouse TLR7; 3 h, 100 mg/kg",89%
same,% Suppression vs. Vehicle,"mouse TLR7; 3 h, 300 mg/kg",100%
same,% Suppression vs. Vehicle,"mouse TLR7; 6 h, 33 mg/kg",35%
same,% Suppression vs. Vehicle,"mouse TLR7; 6 h, 100 mg/kg",44%
same,% Suppression vs. Vehicle,"mouse TLR7; 6 h, 300 mg/kg",81%
same,% Suppression vs. Vehicle,"mouse TLR7; 19 h, 33 mg/kg",0%
same,% Suppression vs. Vehicle,"mouse TLR7; 19 h, 100 mg/kg",5%
same,% Suppression vs. Vehicle,"mouse TLR7; 19 h, 300 mg/kg",49%
C[C@@H]1CN(c2ccc(C#N)c3ncccc23)C[C@H](CN2CCC(C(N)=O)CC2)O1 [ER-888320],% Suppression vs. Vehicle,"mouse TLR7; 3 h, 100 mg/kg",100%
same,% Suppression vs. Vehicle,"mouse TLR7; 6 h, 33 mg/kg",78%
same,% Suppression vs. Vehicle,"mouse TLR7; 6 h, 100 mg/kg",94%
same,% Suppression vs. Vehicle,"mouse TLR7; 13 h, 33 mg/kg",9%
same,% Suppression vs. Vehicle,"mouse TLR7; 13 h, 100 mg/kg",31%
C[C@@H]1CN(c2ccc(C#N)c3ncccc23)C[C@H](CN2CCC(N3CCN(C)CC3)CC2)O1 [ER-890223],% Suppression vs. Vehicle,"mouse TLR7; 3 h, 33 mg/kg",93%
same,% Suppression vs. Vehicle,"mouse TLR7; 3 h, 100 mg/kg",99%
same,% Suppression vs. Vehicle,"mouse TLR7; 6 h, 33 mg/kg",82%
same,% Suppression vs. Vehicle,"mouse TLR7; 6 h, 100 mg/kg",99%
same,% Suppression vs. Vehicle,"mouse TLR7; 19 h, 100 mg/kg",88%
CC(C)C(=O)NC1CN(C[C@H]2CN(c3ccc(C#N)c4ncccc34)C[C@@H](C)O2)C1 [ER-894206],% Suppression vs. Vehicle,"mouse TLR7; 3 h, 33 mg/kg",96%
same,% Suppression vs. Vehicle,"mouse TLR7; 6 h, 33 mg/kg",85%
same,% Suppression vs. Vehicle,"mouse TLR7; 6 h, 100 mg/kg",98%
same,% Suppression vs. Vehicle,"mouse TLR7; 13 h, 33 mg/kg",42%
same,% Suppression vs. Vehicle,"mouse TLR7; 13 h, 100 mg/kg",77%
C[C@@H]1CN(c2ccc(C#N)c3ncccc23)C[C@H](C(=O)NC2(C)CCNCC2)O1 [ER-899718],% Suppression vs. Vehicle,"mouse TLR7; 6 h, 100 mg/kg",74%
same,% Suppression vs. Vehicle,"mouse TLR7; 13 h, 100 mg/kg",51%
C[C@@H]1CN(c2ccc(C#N)c3ncccc23)C[C@H](C(=O)NC2(C)CCN(C)CC2)O1 [ER-899835],% Suppression vs. Vehicle,"mouse TLR7; 6 h, 100 mg/kg",99%
same,% Suppression vs. Vehicle,"mouse TLR7; 13 h, 100 mg/kg",79%
